This is an account of results in patent US20170152269A1, “FUSED BICYCLIC COMPOUNDS AND THEIR USE AS CDK INHIBITORS” (priority 2016, published 2017).

One experiment concerns the target T1, CDK1 (Homo sapiens, UniProt P06493).
T1 construct: purchased ThermoFisher (Waltham, Mass.)
Kind of experiment: Lance TR-FRET kinase assay, CDK1. To be noted: ATP 30 μM, 60 min, read-out: CDK 1 inhibitory activity (IC50). It counts as biochemical. The protocol: (§1) Time Resolved-Fluorescent Resonance Energy Transfer (TR-FRET) was used to determine inhibitory ability of compounds A1˜A19, B1s and B1˜B12 against the enzymatic activity of CDK1, CDK2, CDK4, CDK5, CDK6, CDK7, and CDK9.
(§2) Inhibitory activity of compounds against CDK1/2/4/5/6/7 was assessed using Lance TR-FRET assay kits from Perkin Elmer Life Sciences (Waltham, Mass.). CDK1/2/4/5/6/7 enzymes were purchased from ThermoFisher (Waltham, Mass.). 2.5 μL of compound solutions and 2.5 μL of enzyme solutions in kinase assay buffer, which was 50 mM HEPES (pH 7.5) with 1 mM EGTA, 1 mM MgCl2, 2 mM DTT, and 0.01% Tween-20, were added into a white OptiPlate-384 plate followed by adding 5 μL of fluorescently labeled peptide substrates (Ulight-4E-BP1 for CDK4/6 and Ulight-MBP for CDK1/2/7/9) and ATP mixture solutions. Final concentrations of substrates and DMSO were 100 nM and 0.5%, respectively. Concentrations of ATP and different CDK enzymes were adjusted accordingly to achieve optimal enzymatic activities. Final CDK concentrations were 100, 500, 600, 100, 50, and 200 ng/well and ATP concentrations were 30, 50, 100, 20, 100, and 50 μM for CDK1/2/4/5/6/7, respectively. Assay plates were covered to protect from light and spun for 1 min at 700 RPM. Reactions were allowed to perform for 60 minutes in dark with gentle shaking at room temperature after which 5 μL of 40 mM EDTA in detection buffer was added to stop reactions followed 5 μL of the Eu labeled antibodies giving final concentrations of 2 nM to detect the phosphorylation of the peptide substrates. Assay plates were read with the EnVision™ Multilabel Reader in TR-FRET mode (excitation at 320 nm and emission at 665 nm). The percent of inhibition was calculated from the means of data points using the formula: 100−(Signalcompound−NoSignalbackground)*100/(Signalvehicle−NoSignalbackground). The IC50s were determined with GraphPad Prism by the non-linear sigmoidal curve fitting of data from 10 doses.
Background: TR-FRET usually uses a lanthanide donor and a delayed reading to cut background.

A further experiment concerns the target T2, CDK2 (Homo sapiens, UniProt P24941).
T2 construct: purchased ThermoFisher (Waltham, Mass.)
Kind of experiment: Lance TR-FRET kinase assay, CDK2. Format: biochemical. To be noted: ATP 50 μM, 60 min, read-out: CDK 2 inhibitory activity (IC50). Here is the method: as §1, §2

A further experiment has as its target T3, CDK4 (Homo sapiens, UniProt P11802).
T3 construct: purchased ThermoFisher (Waltham, Mass.)
Kind of experiment: Lance TR-FRET kinase assay, CDK4. It counts as biochemical. The settings on record: ATP 100 μM, 60 min, read-out: CDK 4 inhibitory activity (IC50). The protocol: as §2, with “2.5 μL of compound solutions and 2.5 μL of enzyme solutions in kinase assay buffer, which was 50 mM HEPES (pH 7.5) with 1 mM EGTA, 1 mM MgCl2, 2 mM DTT, and 0.01% Tween-20, were added into a white OptiPlate-384 plate followed by adding 5 μL of fluorescently labeled peptide substrates (Ulight-4E-BP1 for CDK4/6 and Ulight-MBP for CDK1/2/7/9) and ATP mixture solutions.” left out, “Assay plates were read with the EnVision™ Multilabel Reader in TR-FRET mode (excitation at 320 nm and emission at 665 nm).” left out

The target in another experiment is T4, CDK5 (Homo sapiens, UniProt Q00535).
T4 construct: purchased ThermoFisher (Waltham, Mass.)
T4 sequence (Q00535 whole entry): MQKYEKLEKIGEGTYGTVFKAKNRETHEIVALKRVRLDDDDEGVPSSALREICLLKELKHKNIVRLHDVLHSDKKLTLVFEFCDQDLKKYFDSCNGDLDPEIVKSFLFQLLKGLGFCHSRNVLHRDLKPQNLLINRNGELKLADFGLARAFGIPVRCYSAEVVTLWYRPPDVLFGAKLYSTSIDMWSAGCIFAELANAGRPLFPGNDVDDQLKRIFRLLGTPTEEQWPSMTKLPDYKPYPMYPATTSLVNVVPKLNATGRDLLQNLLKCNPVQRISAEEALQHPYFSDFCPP
T4 sequence (Q15078 whole entry partner): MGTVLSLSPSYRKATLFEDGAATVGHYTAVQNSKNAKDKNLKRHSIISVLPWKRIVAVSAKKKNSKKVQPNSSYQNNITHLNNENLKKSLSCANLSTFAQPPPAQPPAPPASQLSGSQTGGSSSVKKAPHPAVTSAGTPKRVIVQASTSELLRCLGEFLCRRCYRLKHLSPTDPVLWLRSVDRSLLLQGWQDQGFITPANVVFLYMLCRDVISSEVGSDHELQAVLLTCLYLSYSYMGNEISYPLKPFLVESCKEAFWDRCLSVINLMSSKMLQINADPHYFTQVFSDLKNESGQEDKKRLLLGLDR
Kind of experiment: Lance TR-FRET kinase assay, CDK5. To be noted: ATP 20 μM, 60 min, read-out: CDK 5 inhibitory activity (IC50). Format: biochemical. The protocol: as §1, §2

The target of another experiment is T5, CDK6 (Homo sapiens, UniProt Q00534).
T5 construct: purchased ThermoFisher (Waltham, Mass.)
T5 sequence (Q00534 whole entry): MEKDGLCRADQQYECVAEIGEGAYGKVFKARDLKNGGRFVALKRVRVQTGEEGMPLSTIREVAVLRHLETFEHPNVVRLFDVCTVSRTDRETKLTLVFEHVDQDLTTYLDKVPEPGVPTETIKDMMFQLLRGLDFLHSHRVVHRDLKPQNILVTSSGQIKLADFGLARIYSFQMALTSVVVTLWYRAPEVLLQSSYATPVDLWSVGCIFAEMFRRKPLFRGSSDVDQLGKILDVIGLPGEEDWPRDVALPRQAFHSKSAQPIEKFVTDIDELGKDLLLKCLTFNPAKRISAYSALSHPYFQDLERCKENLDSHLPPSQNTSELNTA
T5 sequence (P24385 whole entry partner): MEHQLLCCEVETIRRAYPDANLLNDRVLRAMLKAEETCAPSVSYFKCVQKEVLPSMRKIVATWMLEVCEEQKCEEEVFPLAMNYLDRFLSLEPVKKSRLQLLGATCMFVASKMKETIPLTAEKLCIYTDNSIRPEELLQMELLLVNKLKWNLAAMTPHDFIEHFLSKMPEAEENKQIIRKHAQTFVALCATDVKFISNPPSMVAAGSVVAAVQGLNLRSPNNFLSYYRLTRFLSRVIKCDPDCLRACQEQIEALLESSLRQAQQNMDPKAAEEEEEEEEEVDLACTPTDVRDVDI
Kind of experiment: Lance TR-FRET kinase assay, CDK6. Format: biochemical. The protocol:
as §1, §2

For a further experiment, the target named is T6, CDK7 (Homo sapiens, UniProt P50613).
T6 construct: purchased ThermoFisher (Waltham, Mass.)
T6 sequence (P50613 whole entry): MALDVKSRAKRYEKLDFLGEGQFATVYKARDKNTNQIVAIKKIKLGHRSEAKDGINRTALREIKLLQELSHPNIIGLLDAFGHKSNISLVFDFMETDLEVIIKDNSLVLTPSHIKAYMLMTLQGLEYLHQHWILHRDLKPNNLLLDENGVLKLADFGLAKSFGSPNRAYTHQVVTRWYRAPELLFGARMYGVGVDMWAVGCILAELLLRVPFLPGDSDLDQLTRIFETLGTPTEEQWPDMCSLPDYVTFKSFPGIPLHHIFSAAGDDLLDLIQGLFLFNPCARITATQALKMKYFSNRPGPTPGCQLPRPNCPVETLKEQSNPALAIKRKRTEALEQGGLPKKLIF
T6 sequence (P51946 whole entry partner): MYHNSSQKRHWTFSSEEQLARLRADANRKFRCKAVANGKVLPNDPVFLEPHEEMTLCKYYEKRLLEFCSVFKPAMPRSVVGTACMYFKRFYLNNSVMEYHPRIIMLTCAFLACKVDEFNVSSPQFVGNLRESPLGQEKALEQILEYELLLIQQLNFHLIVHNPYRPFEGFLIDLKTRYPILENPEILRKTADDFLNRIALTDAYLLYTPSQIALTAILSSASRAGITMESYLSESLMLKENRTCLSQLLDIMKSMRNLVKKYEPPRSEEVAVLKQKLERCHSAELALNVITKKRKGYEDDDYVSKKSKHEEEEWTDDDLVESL
T6 sequence (P51948 whole entry partner): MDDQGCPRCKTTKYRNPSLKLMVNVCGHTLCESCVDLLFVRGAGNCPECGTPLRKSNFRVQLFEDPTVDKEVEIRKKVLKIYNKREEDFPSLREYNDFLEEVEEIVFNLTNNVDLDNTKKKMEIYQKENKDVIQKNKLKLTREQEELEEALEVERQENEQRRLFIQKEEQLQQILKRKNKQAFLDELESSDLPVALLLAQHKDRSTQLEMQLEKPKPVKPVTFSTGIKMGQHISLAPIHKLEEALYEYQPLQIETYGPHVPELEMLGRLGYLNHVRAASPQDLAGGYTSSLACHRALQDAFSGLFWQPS
Kind of experiment: Lance TR-FRET kinase assay, CDK7. Format: biochemical. The settings on record: ATP 50 μM, 60 min; for IC50: read-out: CDK 7 inhibitory activity (IC50). Here is the method:
as §2, with “2.5 μL of compound solutions and 2.5 μL of enzyme solutions in kinase assay buffer, which was 50 mM HEPES (pH 7.5) with 1 mM EGTA, 1 mM MgCl2, 2 mM DTT, and 0.01% Tween-20, were added into a white OptiPlate-384 plate followed by adding 5 μL of fluorescently labeled peptide substrates (Ulight-4E-BP1 for CDK4/6 and Ulight-MBP for CDK1/2/7/9) and ATP mixture solutions.” left out, “Assay plates were read with the EnVision™ Multilabel Reader in TR-FRET mode (excitation at 320 nm and emission at 665 nm).” left out

The target of a further experiment is T7, CDK9/cyclin T1 (Homo sapiens, UniProt P50750).
T7 construct: purchased ThermoFisher (Waltham, Mass.)
T7 sequence (P50750 whole entry): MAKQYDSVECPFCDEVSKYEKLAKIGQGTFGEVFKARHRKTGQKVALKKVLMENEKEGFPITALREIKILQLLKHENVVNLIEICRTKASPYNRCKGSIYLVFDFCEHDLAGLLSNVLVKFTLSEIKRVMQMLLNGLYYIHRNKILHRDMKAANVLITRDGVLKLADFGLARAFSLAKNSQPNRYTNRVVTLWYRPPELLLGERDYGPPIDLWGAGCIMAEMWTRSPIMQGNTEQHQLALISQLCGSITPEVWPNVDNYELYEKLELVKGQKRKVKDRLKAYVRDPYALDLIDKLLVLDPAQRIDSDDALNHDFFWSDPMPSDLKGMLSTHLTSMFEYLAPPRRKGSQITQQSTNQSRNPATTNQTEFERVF
T7 sequence (O60563 whole entry partner): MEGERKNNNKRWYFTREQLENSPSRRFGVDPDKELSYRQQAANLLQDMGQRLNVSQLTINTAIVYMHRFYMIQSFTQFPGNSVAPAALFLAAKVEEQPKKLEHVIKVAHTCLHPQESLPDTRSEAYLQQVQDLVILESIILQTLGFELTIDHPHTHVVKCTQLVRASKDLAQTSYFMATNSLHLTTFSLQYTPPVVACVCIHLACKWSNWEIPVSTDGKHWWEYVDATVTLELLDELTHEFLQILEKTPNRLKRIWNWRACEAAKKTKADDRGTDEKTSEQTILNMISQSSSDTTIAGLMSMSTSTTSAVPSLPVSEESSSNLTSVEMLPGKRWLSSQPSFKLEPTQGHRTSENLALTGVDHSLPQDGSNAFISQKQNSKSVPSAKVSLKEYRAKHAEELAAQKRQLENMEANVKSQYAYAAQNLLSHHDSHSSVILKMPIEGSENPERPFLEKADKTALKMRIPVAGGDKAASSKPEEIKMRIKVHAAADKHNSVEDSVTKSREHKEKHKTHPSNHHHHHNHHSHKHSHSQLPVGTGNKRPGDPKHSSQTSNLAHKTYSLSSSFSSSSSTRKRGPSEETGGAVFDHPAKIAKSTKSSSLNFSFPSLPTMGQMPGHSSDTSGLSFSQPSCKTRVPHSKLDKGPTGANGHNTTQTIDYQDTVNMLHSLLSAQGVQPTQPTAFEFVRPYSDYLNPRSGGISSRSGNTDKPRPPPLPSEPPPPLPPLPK
Kind of experiment: LanthaScreen Eu kinase binding assay, CDK9. The settings on record: tracer 236 displacement, CDK9/cyclin T1 5 nM, 1 hour; read-out: CDK 9 inhibitory activity (IC50). Here is the method:
as §1
The CDK9 kinase inhibitory activity of compounds was tested in the LanthaScreen Eu kinase binding assay from ThermoFisher. LanthaScreen® Eu Kinase binding assays are based on the binding and displacement of a proprietary, Alexa Fluor® 647-labeled, ATP-competitive kinase inhibitor scaffold (kinase tracer) to CDK9. CDK9/cyclin T1, Kinase tracer 236 and LanthaScreen® Eu-anti-His Antibody were purchased form ThermoFisher (Waltham, Mass.). 5 μL of CDK9/cyclin T1 (final 5 nM)/antibody (final 2 nM) mixture, 5 μL of compound in kinase buffer, and 5 μL of tracer (final 30 nM) were added to wells of a white OptiPlate-384 plate in this specific order. Assay plates were covered to protect from light, spun for 1 min at 700 RPM and incubated at room temperature for 1 hour. Assay plates were read with the EnVision™ Multilabel Reader in TR-FRET mode (excitation at 320 nm and emission at 665 nm). The percent of inhibition was calculated from the means of data points using the formula: 100−(Signalcompound−NoSignalbackgound)*100/(Signalvehicle−NoSignalbackground). The IC50s were determined with GraphPad Prism by the non-linear sigmoidal curve fitting of data from 10 doses.

T1 sequence (P06493 whole entry): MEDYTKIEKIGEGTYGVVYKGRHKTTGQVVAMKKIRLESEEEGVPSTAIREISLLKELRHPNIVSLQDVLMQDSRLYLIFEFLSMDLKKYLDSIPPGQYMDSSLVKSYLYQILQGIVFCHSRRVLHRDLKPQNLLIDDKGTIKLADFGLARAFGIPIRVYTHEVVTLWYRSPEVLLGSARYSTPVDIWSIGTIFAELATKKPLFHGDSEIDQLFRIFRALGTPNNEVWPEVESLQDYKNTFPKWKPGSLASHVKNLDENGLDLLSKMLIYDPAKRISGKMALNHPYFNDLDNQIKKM
T1 sequence (P14635 whole entry partner): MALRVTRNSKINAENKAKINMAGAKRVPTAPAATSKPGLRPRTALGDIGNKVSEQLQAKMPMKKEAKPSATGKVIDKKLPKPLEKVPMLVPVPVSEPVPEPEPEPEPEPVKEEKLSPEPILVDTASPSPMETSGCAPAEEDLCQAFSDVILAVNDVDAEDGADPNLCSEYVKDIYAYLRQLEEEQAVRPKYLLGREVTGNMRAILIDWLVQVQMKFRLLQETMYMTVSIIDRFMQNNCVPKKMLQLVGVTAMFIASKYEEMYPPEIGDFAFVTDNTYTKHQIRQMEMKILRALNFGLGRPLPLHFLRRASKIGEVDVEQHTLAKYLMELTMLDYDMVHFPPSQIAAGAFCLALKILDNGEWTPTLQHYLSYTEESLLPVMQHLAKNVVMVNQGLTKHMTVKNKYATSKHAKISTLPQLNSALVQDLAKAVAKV
T3 sequence (P11802 whole entry): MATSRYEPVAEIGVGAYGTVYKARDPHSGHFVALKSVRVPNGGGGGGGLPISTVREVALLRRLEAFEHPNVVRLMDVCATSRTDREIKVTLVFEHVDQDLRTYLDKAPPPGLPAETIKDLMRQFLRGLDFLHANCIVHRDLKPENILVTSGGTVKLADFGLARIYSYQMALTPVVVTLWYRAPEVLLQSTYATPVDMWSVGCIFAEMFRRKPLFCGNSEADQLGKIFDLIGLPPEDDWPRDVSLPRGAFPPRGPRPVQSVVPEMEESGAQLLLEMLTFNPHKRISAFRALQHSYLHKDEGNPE
T3 sequence (P24385 whole entry partner): as the sequence (P24385 whole entry partner) above

As usually defined, the IC50 is the concentration at which inhibition is half-maximal. Turning to `CN(C)C(=O)c1sc2cnc(Nc3ccc(N4CCNCC4)cn3)cc2c1C1CCCC1` [Compound A1, 3-cyclopentyl-N,N-dimethyl-5-((5-(piperazin-1-yl)pyridin-2-yl)amino)thieno[2,3-c]pyridine-2-carboxamide], the IC50 stood at 162 nM on CDK1; 346 nM at CDK2; 1.2 nM on CDK4; 262 nM on CDK5; 0.66 nM against CDK6; 1100 nM at CDK7. Further, at CDK9/cyclin T1, the IC50 was determined as 5.3 nM.
`N#Cc1sc2cnc(Nc3cccc(N4CCOCC4)c3)cc2c1C1CCCC1` [Compound B10, 3-cyclopentyl-5-((3-morpholinophenyl)amino)thieno[2,3-c]pyridine-2-carbonitrile]: the IC50 at CDK1 was determined as 834 nM; on CDK2, 308 nM; on CDK4, 1540 nM; against CDK6 it was 838 nM; at CDK9/cyclin T1, 308 nM. Besides, the “CDK 7 inhibitory activity (IC50)” value on CDK7 was “inactive”.
Regarding `N#Cc1sc2cnc(Nc3ccc(N4CCNCC4)cn3)cc2c1C1CCCC1` [Compound B1, 3-cyclopentyl-5-((5-(piperazin-1-yl)pyridin-2-yl)amino)thieno[2,3-c]pyridine-2-carbonitrile], the IC50 is 5.4 nM on CDK1; 2.8 nM on CDK2; 1.1 nM at CDK4; 24.4 nM at CDK5; 0.3 nM on CDK6; 14.9 nM at CDK7. Further, the IC50 at CDK9/cyclin T1 came to 1.3 nM.
Turning to `CN(C)C(=O)c1sc2cnc(Nc3ccc(N4CCNCC4)cn3)cc2c1C1CCCCC1` [Compound A5, 3-cyclohexyl-N,N-dimethyl-5-((5-(piperazin-1-yl)pyridin-2-yl)amino)thieno[2,3-c]pyridine-2-carboxamide], the IC50 amounted to 39.5 nM on CDK1; 942 nM on CDK2; 1.4 nM on CDK4; 266 nM at CDK5; 1.1 nM against CDK6; 3290 nM on CDK7. Also, the IC50 at CDK9/cyclin T1 is 13.4 nM.
As for `N#Cc1sc2cnc(Nc3ccc(N4CCOCC4)cc3)cc2c1C1CCCC1` [Compound B6, 3-cyclopentyl-5-((4-morpholinophenyl)amino)thieno[2,3-c]pyridine-2-carbonitrile], the IC50 on CDK1 came to 1680 nM; at CDK2, 39.6 nM; at CDK4, 222 nM; on CDK6 it was 19 nM; on CDK9/cyclin T1, 951 nM. The “CDK 7 inhibitory activity (IC50)” value at CDK7 is “inactive”.
Regarding `CN1CCN(c2ccc(Nc3cc4c(C5CCCC5)c(C#N)sc4cn3)cc2)CC1` [Compound B4, 3-cyclopentyl-5-((4-(4-methylpiperazin-1-yl)phenyl)amino)thieno[2,3-c]pyridine-2-carbonitrile], the IC50 was determined as 31.5 nM at CDK1; 10.4 nM at CDK2; 1.9 nM on CDK4; 0.7 nM against CDK6; 47 nM at CDK7; 8.6 nM on CDK9/cyclin T1.
For `N#Cc1sc2cnc(Nc3cnc(N4CCOCC4)nc3)cc2c1C1CCCC1` [Compound B8, 3-cyclopentyl-5-((2-morpholinopyrimidin-5-yl)amino)thieno[2,3-c]pyridine-2-carbonitrile], the IC50 turned out to be 22000 nM on CDK1; 824 nM on CDK2; 8660 nM at CDK4; 791 nM on CDK6; 4590 nM on CDK9/cyclin T1. Moreover, the “CDK 7 inhibitory activity (IC50)” value on CDK7 is “inactive”.
